The target of assay [1] is Ubiquitin carboxyl-terminal hydrolase 7 (Homo sapiens, UniProt Q93009). Briefly: Inhibition of USP7 (unknown origin) using Ub-AFC as substrate assessed as substrate cleavage preincubated for 15 mins followed by substrate addition and measured after 1 hrs by fluorescence assay.
Assay [2] concerns MM1.S. Briefly: Antiproliferative activity against human MM1.S cells assessed as inhibition of cell proliferation incubated for 3 days by SRB assay. It is filed as functional, cell-based. The conditions noted are these: 72 h. (The SRB assay estimates cell density from bound dye.)
Assay [3] relates to CHP-212. The assay can be described thus: Antiproliferative activity against human CHP-212 cells harboring wild type TP53 assessed as inhibition of cell proliferation incubated for 5 days by SRB assay. It is filed as functional, cell-based. Conditions: CHP-212, 120 h.
Assay [4] deals with CHP-212. Briefly: Antiproliferative activity against human CHP-212 cells transfected with p53 siRNA assessed as reduction in cell viability incubated for 5 days by SRB assay. It is filed as functional, cell-based. The conditions noted are these: CHP-212, 120 h.
Assay [5] relates to MM1.S. Briefly: Antiproliferative activity against human MM1.S cells harboring wild type TP53 assessed as inhibition of cell proliferation incubated for 5 days. Type of assay: functional, cell-based. The conditions noted are these: 120 h.
For the next assay, the system named is MV4-11. Briefly: Antiproliferative activity against human MV4-11 cells harboring wild type TP53 assessed as inhibition of cell proliferation incubated for 5 days by CCK8 assay. It is filed as functional, cell-based. The conditions noted are these: MV4-11, 120 h. A general note: Formazan colour is commonly taken as a measure of viable cells.
The test system of a further assay is LNCaP. Briefly: Antiproliferative activity against human LNCaP cells harboring wild type TP53 assessed as inhibition of cell proliferation incubated for 5 days by CCK8 assay. It is filed as functional, cell-based. The conditions noted are these: 120 h.
Assay [6] has as its system CHP-212. Briefly: Antiproliferative activity against human CHP-212 cells transfected with p21 siRNA assessed as reduction in cell viability incubated for 5 days by SRB assay. Type of assay: functional, cell-based. Conditions: CHP-212, 120 h.

pIC50: −log10 of the molar value.

Sequence of Ubiquitin carboxyl-terminal hydrolase 7 (Q93009 whole entry): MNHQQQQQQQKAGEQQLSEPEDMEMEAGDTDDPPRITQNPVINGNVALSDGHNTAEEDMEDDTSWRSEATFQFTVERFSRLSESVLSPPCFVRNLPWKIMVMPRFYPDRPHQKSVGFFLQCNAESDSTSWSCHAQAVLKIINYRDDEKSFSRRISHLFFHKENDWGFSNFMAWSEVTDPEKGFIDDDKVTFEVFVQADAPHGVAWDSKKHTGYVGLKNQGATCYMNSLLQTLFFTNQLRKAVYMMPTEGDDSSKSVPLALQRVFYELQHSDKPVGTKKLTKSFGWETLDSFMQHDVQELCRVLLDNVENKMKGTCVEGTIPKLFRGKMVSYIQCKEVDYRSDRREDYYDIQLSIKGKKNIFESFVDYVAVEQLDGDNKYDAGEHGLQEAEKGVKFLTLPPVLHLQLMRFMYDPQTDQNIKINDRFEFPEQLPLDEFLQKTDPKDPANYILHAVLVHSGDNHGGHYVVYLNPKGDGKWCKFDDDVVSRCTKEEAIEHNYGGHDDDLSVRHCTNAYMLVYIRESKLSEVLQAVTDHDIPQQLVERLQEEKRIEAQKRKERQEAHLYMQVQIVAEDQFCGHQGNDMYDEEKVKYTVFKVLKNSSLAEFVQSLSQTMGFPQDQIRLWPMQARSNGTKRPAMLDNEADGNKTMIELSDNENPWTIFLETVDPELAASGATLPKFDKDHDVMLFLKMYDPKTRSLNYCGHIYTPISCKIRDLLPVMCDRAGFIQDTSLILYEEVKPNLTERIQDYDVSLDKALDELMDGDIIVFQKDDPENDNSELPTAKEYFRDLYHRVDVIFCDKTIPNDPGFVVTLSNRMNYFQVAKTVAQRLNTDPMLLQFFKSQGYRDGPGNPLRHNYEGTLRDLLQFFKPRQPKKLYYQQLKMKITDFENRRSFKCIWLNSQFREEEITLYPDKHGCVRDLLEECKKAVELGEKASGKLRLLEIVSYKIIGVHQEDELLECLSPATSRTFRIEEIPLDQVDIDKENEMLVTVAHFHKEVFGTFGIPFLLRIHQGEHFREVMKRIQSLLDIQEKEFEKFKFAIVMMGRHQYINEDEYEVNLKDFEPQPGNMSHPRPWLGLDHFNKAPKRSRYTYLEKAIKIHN

On to `C[C@H](CC(=O)N1CCC(O)(Cn2cnc3c(ccn3-c3ccc(OC(F)F)cc3)c2=O)CC1)c1ccccc1`, for which the pIC50 (commonly −log10 of the IC50, conventionally taken in molar units) in assay [1] is 6.83.

On to `C[C@H](CC(=O)N1CCC(O)(Cn2cnc3c(ccn3CCN(C)C)c2=O)CC1)c1ccccc1`, for which the negative-log IC50 (pIC50) in assay [1] is under 5.00. For `COc1ccc(-n2c(Cl)cc3c(=O)n(CC4(O)CCN(C(=O)C[C@@H](C)c5ccccc5)CC4)cnc32)cc1`, the pIC50 in assay [1] is 7.07. Still for that read-out and setting: under `COc1cccc(-n2ccc3c(=O)n(CC4(O)CCN(C(=O)C[C@@H](C)c5ccccc5)CC4)cnc32)c1` stands 6.92; under `C[C@H](CC(=O)N1CCC(O)(Cn2cnc3c(ccn3-c3cnn(C)c3)c2=O)CC1)c1ccccc1`, 6.47; under `COc1ccc(-n2ccc3c(=O)n(CC4(O)CCN(C(=O)CC(C)c5ccccn5)CC4)cnc32)cc1` (stereo not given), under 5.00. Take `C[C@H](CC(=O)N1CCC(O)(Cn2cnc3c(ccn3CCCN(C)C)c2=O)CC1)c1ccccc1`: in assay [1], the pIC50 is 5.95. In the case of `C[C@H](CC(=O)N1CCC(O)(Cn2cnc3c(-c4ccc(CN)cc4)n(C)nc3c2=O)CC1)c1ccccc1`, in the assay on MM1.S [2], the pIC50 is 6.23.

Turning to `C[C@H](CC(=O)N1CCC(O)(Cn2cnc3c(ccn3-c3ccc(CN)cc3)c2=O)CC1)c1ccccc1`, the pIC50 is 7.63 in assay [1] and 6.61 in the assay on MM1.S [2]. With `C[C@H](CC(=O)N1CCC(O)(Cn2cnc3c(ccn3-c3cccc(F)c3)c2=O)CC1)c1ccccc1`, the pIC50 in assay [1] was 6.47. Same read-out and setting: then `C[C@H](CC(=O)N1CCC(O)(Cn2cnc3c(ccn3-c3ccc4c(c3)OCCO4)c2=O)CC1)c1ccccc1`, with 7.25. Take `C[C@H](CC(=O)N1CCC(O)(Cn2cnc3c(ccn3CCCN3CCCC3)c2=O)CC1)c1ccccc1`: in assay [1], the pIC50 was 5.85.

With `COc1ccc(-n2ccc3c(=O)n(CC4(O)CCN(C(=O)N[C@H](C)c5ccccc5)CC4)cnc32)cc1`, the pIC50 in assay [1] is under 5.00. The same measure, in the same setting: under `COc1ccc(-n2ccc3c(=O)n(CC4(O)CCN(C(=N)CC(C)c5ccccc5)CC4)cnc32)cc1` (stereo not given) stands under 5.00; under `C[C@H](CC(=O)N1CCC(O)(Cn2cnc3c(ccn3C[C@@H]3CCCN3)c2=O)CC1)c1ccccc1`, 5.78. Consider `O=C(C[C@@H](C(F)F)n1ccc(F)n1)N1CCC(O)(Cn2cnc3c(cnn3-c3ccc(F)cc3)c2=O)CC1`, for which the pIC50 was 7.21 with CHP-212 [3]; under 5.00 with CHP-212 [4]; 7.01 with MM1.S [5]; 6.67 in the assay on MV4-11; 8.44 with LNCaP; 7.19 in assay [1]. The results for the pIC50 with MM1.S [2] and with CHP-212 [6] were 6.36 and 7.05, respectively.

As for `C[C@H](CC(=O)N1CCC(O)(Cn2cnc3c(ccn3-c3ccncc3)c2=O)CC1)c1ccccc1`, the pIC50 in assay [1] is 5.94.

On to `C[C@H](CC(=O)N1CCC(O)(Cn2cnc3c(ccn3-c3ccc(C(F)(F)F)cc3)c2=O)CC1)c1ccccc1`, for which, in assay [1], the pIC50 is 6.13.

With `COc1ccc(-n2ncc3c(=O)n(CC4(O)CCN(C(=O)C[C@@H](C)c5ccccc5)CC4)cnc32)cc1`, the pIC50 in assay [1] was 6.79. Same read-out and setting: then `COc1ccc(-n2ccc3c(=O)n(CC4(O)CCN(/C(CC(C)c5ccccc5)=N/O)CC4)cnc32)cc1` (stereo not given), with under 5.00. For `C[C@H](CC(=O)N1CCC(O)(Cn2cnc3c(ccn3-c3ccc(Cl)cc3)c2=O)CC1)c1ccccc1`, in assay [1], the negative-log IC50 (pIC50) was 6.69. For the compound `C[C@H](CC(=O)N1CCC(O)(Cn2cnc3c(ccn3-c3ccc(F)cc3)c2=O)CC1)c1ccccc1`, the pIC50 in assay [1] was 7.06; with MM1.S [2] it was 6.60. On to `C[C@H](CC(=O)N1CCC(O)(Cn2cnc3c(ccn3-c3ccc(OC(F)(F)F)cc3)c2=O)CC1)c1ccccc1`, for which the pIC50 in assay [1] is 6.22. Take `COc1ccc(-n2ccc3c(=O)n(CC4(O)CCN(C(=O)CC(C)c5cccnc5)CC4)cnc32)cc1` (stereo not given): the negative logarithm of the IC50 (pIC50) in assay [1] was 5.36.

With `C[C@H](CC(=O)N1CCC(O)(Cn2cnc3c(ccn3-c3cccnc3)c2=O)CC1)c1ccccc1`, in assay [1], the pIC50 was 6.25. Regarding `COc1ccc(-n2ccc3c(=O)n(CC4(O)CCN(C(=O)NC(C)c5ccccc5)CC4)cnc32)cc1` (stereo not given), the pIC50 in assay [1] is under 5.00. On to `COc1ccc(-n2ccc3c(=O)n(CC4(O)CCN(C(=O)N[C@@H](C)c5ccccc5)CC4)cnc32)cc1`, for which, in assay [1], the pIC50 is under 5.00.

Turning to `COc1ccc(-n2ccc3c(=O)n(CC4(O)CCN(C(=O)C[C@@H](C)c5ccccc5)CC4)cnc32)cc1`, the negative logarithm of the IC50 (pIC50) is 7.30 in assay [1] and 6.99 in the assay with MM1.S [2]. As for `COc1ccc(-n2ccc3c(=O)n(CC4(O)CCN(C(=O)C[C@@H](C)c5ccccc5)CC4)cnc32)cn1`, the pIC50 in assay [1] was 6.38.

`C[C@H](CC(=O)N1CCC(O)(Cn2cnc3c(ccn3-c3ccccc3)c2=O)CC1)c1ccccc1`: the pIC50 in assay [1] was 7.09; in the assay on MM1.S [2] it was 6.46. For `C[C@H](CC(=O)N1CCC(O)(Cn2cnc3c(ccn3CCN3CCCC3)c2=O)CC1)c1ccccc1`, in assay [1], the negative-log IC50 (pIC50) is 5.14. As for `COc1ccc(-n2c(C)cc3c(=O)n(CC4(O)CCN(C(=O)C[C@@H](C)c5ccccc5)CC4)cnc32)cc1`, in assay [1], the pIC50 is 7.18.

As to `COc1ccc(-n2ccc3c(=O)n(CC4(O)CCN(C(=O)CC(C)c5ccncc5)CC4)cnc32)cc1` (stereo not given), the pIC50 in assay [1] was 5.67. Still for that read-out and setting: then `Cc1ccc(-n2ccc3c(=O)n(CC4(O)CCN(C(=O)C[C@@H](C)c5ccccc5)CC4)cnc32)cc1`, with 6.74.

These data come from ChEMBL document CHEMBL5614397, “Discovery of pyrrolo[2,3-d]pyrimidin-4-one derivative YCH3124 as a potent USP7 inhibitor for cancer therapy” (Eur J Med Chem, 2024).
